This note sets out measurements from patent EP4813977A1, “NOVEL COMPOUND AND USE THEREOF” (Protier Biotech Inc., priority 2023, dated 2025).

Assay [1] concerns human multiple myeloma cell line MM.1S. The assay can be described thus: Cell viability assay (Cell Counting Kit-8), MM.1S. It is filed as cell-based. As to conditions: MM1.S, 72 hours, CCK-8, absorbance 450 nm. Here is the method:
(§1) To evaluate the cytotoxicity of the compounds synthesized in the Preparation Examples against cancer cells, a cell viability assay following treatment with the synthesized compounds was performed using a T-cell leukemia cell line Jurkat (KCLB, Cat# 40152), a human acute monocytic leukemia cell line MV-4-11 (ATCC, Cat# CRL-9591), and a human multiple myeloma cell line MM.1S (ATCC, Cat# CRL-2974).
(§2) As a culture medium for the cell lines, an RPMI medium containing 10 % heat-inactivated FBS and 1 % penicillin/streptomycin (P/S) antibiotics was used. The culture medium was stored refrigerated and warmed in a 37 °C water bath before use. Each cell line was used for the test after a stabilization period of at least 2 weeks after thawing, and cell culture was performed based on information provided by the cell line manufacturer regarding the thawing and subculture conditions.
(§3) The Jurkat, MV-4-11, or MM.1S cell line was seeded in a 96-well plate at a density of 1 × 10^4 cells/well and incubated in a 37 °C CO2 incubator overnight. After incubation, a prepared test compound was applied to each cell line, and the cells were incubated in a 37 °C CO2 incubator for 72 hours. After 72 hours of incubation, a Cell Counting Kit-8 (Dojindo, Cat# CK04-20) reagent was added, and the cells were incubated in a 37 °C CO2 incubator. Then, the absorbance was measured at 450 nm using a SpectraMax M3 Microplate Reader (N=2, duplicate measurement). The evaluation concentrations for evaluating the cytotoxicity of the compounds were 10 points: 100 µM, 20 µM, 4 µM, 0.8 µM, 0.16 µM, 0.032 µM, 0.0064 µM, 0.00128 µM, 0.000256 µM, and 0 µM, and the test was performed at 2 wells/concentration point (n=2). A GI50 was derived using a GraphPad Prism program.
Background: Tetrazolium dyes change colour on reduction, which living cells bring about.

Assay [2] relates to T-cell leukemia cell line Jurkat. The assay can be described thus: Cell viability assay (Cell Counting Kit-8), Jurkat. In kind it is cell-based. As to conditions: Homo sapiens, 72 hours, CCK-8, absorbance 450 nm. Here is the method: as §1, §2, §3
Assay [3] has as its target T1, Cereblon (CRBN) protein (Homo sapiens, UniProt Q96SW2).
T1 construct: purchased Eurofins (E3scan service); host or cells: HEK-293
The assay can be described thus: CRBN binding affinity, E3scan (Eurofins) competition binding with qPCR read-out. As to conditions: lower % Ctrl = stronger binding, DMSO = 100 % Ctrl, lenalidomide = 0 % Ctrl. Here is the method:
Specifically, CRBN was produced using a HEK-293 cell line and labeled with DNA for qPCR detection. Streptavidin-coated magnetic beads were treated with a biotinylated small-molecule ligand at room temperature for 30 minutes to generate an affinity resin for E3scan analysis. The liganded beads were blocked with excess biotin and washed with a blocking buffer (SeaBlock (Pierce), 1 % BSA, 0.05 % Tween 20, 1 mM DTT) to remove unbound ligands and prevent non-specific binding. […] The test compound was prepared as a 100× stock in 100 % DMSO and diluted directly into the assay solution. All reactions were performed in a polypropylene 384-well plate with a final reaction volume of 0.02 mL. […] The CRBN concentration in the eluate was measured by qPCR. […] A lower '% Ctrl' indicates a stronger binding affinity. […] ((test compound signal−positive control signal)/(negative control signal−positive control signal)) × 100 [formula]

Assay [4] deals with human acute monocytic leukemia cell line MV-4-11. The assay can be described thus: Cell viability assay (Cell Counting Kit-8), MV-4-11. It is filed as cell-based. As to conditions: MV4-11, 72 hours, CCK-8, absorbance 450 nm. Here is the method: as §1, §2, §3

In general, GI50 refers to the concentration at which growth is held to half of that of the control. Low readings indicate more potent growth inhibition, high ones less potent growth inhibition. For the compound `O=C1CCC(N2Cc3cc(C(=O)c4ccc(Br)cc4)ccc3C2=O)C(=O)N1` (stereo not drawn) [Compound 49, 3-(5-(4-bromobenzoyl)-1-oxeisoindolin-2-yl)piperidine-2,6-dione], the GI50 in assay [1] was 1000 to 10000 nM; in assay [2], at most 100 nM.

As to `O=C1CCC(N2Cc3cc(C(=O)c4cc5ccc(Cl)cc5[nH]4)ccc3C2=O)C(=O)N1` (stereo not drawn) [Compound 20, 3-(5-(6-chloro-1H-indole-2-carbonyl)-1-oxoisoindolin-2-yl)piperidine-2,6-dione], the GI50 in assay [1] and in assay [2] was at most 100 nM in each case.

Consider `O=C1CCC(N2Cc3cc(C(=O)c4ccc(O)cc4)ccc3C2=O)C(=O)N1` (stereo not drawn) [Compound 52, 3-(5-(4-hydroxybenzoyl)-1-oxoisoindolin-2-yl)piperidine-2,6-dione], for which the figures for the GI50 in assay [1] and in assay [2] were at most 100 nM and 100 to 1000 nM, respectively.

For `O=C1CCC(N2Cc3cc(C(=O)c4cc5ccccc5[nH]4)ccc3C2=O)C(=O)N1` (stereo not drawn) [Compound 3, 3-(5-(1H-indole-2-carbonyl)-1-oxoisoindolin-2-yl)piperidine-2,6-dione], the GI50 in assay [1], in assay [4] and in assay [2] was at most 100 nM each time. For the same compound, in assay [3], the “CRBN binding affinity (% Ctrl @ 5µM)” value was “A (0 ≤ '% Ctrl' < 0.1)”.

`O=C1CCC(N2Cc3cc(C(=O)c4n[nH]c5ccccc45)ccc3C2=O)C(=O)N1` (stereo not drawn) [Compound 17, 3-(5-(1H-indazole-3-carbonyl)-1-oxoisoindolin-2-yl)piperidine-2,6-dione]: the GI50 was at most 100 nM in assay [1], at most 100 nM in assay [4] and 100 to 1000 nM in assay [2]. In addition, in assay [3], the “CRBN binding affinity (% Ctrl @ 5µM)” value is recorded as “A (0 ≤ '% Ctrl' < 0.1)”.

With `O=C1CCC(N2Cc3cc(C(=O)c4cc5ccccc5o4)ccc3C2=O)C(=O)N1` (stereo not drawn) [Compound 34, 3-(5-(benzofuran-2-carbonyl)-1-oxoisoindolin-2-yl)piperidine-2,6-dione], the GI50 in assay [1] and in assay [2] was at most 100 nM in each case. Also, the “CRBN binding affinity (% Ctrl @ 5µM)” value in assay [3] is “A (0 ≤ '% Ctrl' < 0.1)”.

Regarding `CNc1ccc2cc(C(=O)c3ccc4c(c3)CN(C3CCC(=O)NC3=O)C4=O)[nH]c2c1` (stereo not drawn) [Compound 22, 3-(5-(6-(methylamino)-1H-indole-2-carbonyl)-1-oxoisoindolin-2-yl)piperidine-2,6-dione], the GI50 in assay [1], in assay [4] and in assay [2] was at most 100 nM throughout. The “CRBN binding affinity (% Ctrl @ 5µM)” value in assay [3] is given as “A (0 ≤ '% Ctrl' < 0.1)”.

With `O=C1CCC(N2Cc3cc(C(=O)c4c[nH]c5cc(Cl)ccc45)ccc3C2=O)C(=O)N1` (stereo not drawn) [Compound 18, 3-(5-(6-chloro-1H-indole-3-carbonyl)-1-oxoisoindolin-2-yl)piperidine-2,6-dione], the GI50 in assay [1] is at most 100 nM; in assay [4] it was at most 100 nM; in assay [2], 100 to 1000 nM.

`O=C1CCC(N2Cc3cc(C(=O)c4c[nH]c5ccccc45)ccc3C2=O)C(=O)N1` (stereo not drawn) [Compound 4, 3-(5-(1H-indole-3-carbonyl)-1-oxoisoindolin-2-yl)piperidine-2.6-dione]: the GI50 in assay [1] is at most 100 nM; in assay [2], 100 to 1000 nM. The “CRBN binding affinity (% Ctrl @ 5µM)” value in assay [3] is reported as “B (0.1 ≤ '% Ctrl' < 1)”.

Take `O=C1CCC(N2Cc3cc(C(=O)N4Cc5cccc6cccc4c56)ccc3C2=O)C(=O)N1` (stereo not drawn) [Compound 31, 3-(5-(1,2-dihydrobenxo[cd]indole-1-carbonyl)-1-oxoisoindolin-2-yl)piperidine-2,6-dione]: the GI50 in assay [1] is at most 100 nM; in assay [2] it was 100 to 1000 nM. In assay [3], the “CRBN binding affinity (% Ctrl @ 5µM)” value is reported as “A (0 ≤ '% Ctrl' < 0.1)”.

With `O=C1CCC(N2Cc3cc(C(=O)c4coc5ccccc45)ccc3C2=O)C(=O)N1` (stereo not drawn) [Compound 37, 3-(5-(benzofuran-3-carbonyl)-1-oxoisoindolin-2-yl)piperidine-2,6-dione], the GI50 in assay [1] is at most 100 nM; in assay [2], 100 to 1000 nM. The “CRBN binding affinity (% Ctrl @ 5µM)” value in assay [3] is recorded as “C (1 ≤ % Ctrl' < 10)”.

As to `CC(C)(C)c1ccc(C(=O)c2ccc3c(c2)CN(C2CCC(=O)NC2=O)C3=O)cc1` (stereo not drawn) [Compound 63, 3-(5-(4-(tert-butyl)benzoyl)-1-oxoisoindolin-2-yl)piperidine-2,6-dione], the GI50 in assay [1] and in assay [2] was at most 100 nM each time.

On to `O=C1CCC(N2Cc3cc(C(=O)c4cc5cc(F)ccc5[nH]4)ccc3C2=O)C(=O)N1` (stereo not drawn) [Compound 9, 3-(5-(5-fluoro-1H-indole-2-carbonyl)-1-oxoisoindolin-2-yl)piperidine-2,6-dione], for which the GI50 in assay [1] and in assay [2] was at most 100 nM in each case.

Take `O=C1CCC(N2Cc3cc(C(=O)c4ccc(-c5ccccc5)cc4)ccc3C2=O)C(=O)N1` (stereo not drawn) [Compound 33, 3-(5-([1,1'-biphenyl]-4-carbonyl)-1-oxoisoindolin-2-yl)piperidine-2,6-dione]: the GI50 in assay [1] and in assay [2] was at most 100 nM in each case.

Turning to `O=C1CCC(N2Cc3cc(C(=O)c4ccc5ccccc5c4)ccc3C2=O)C(=O)N1` (stereo not drawn) [Compound 44, 3-(5-(2-naphthoyl)-1-oxoisoindolin-2-yl)piperidine-2,6-dione], the GI50 was above 10000 nM in assay [1] and at most 100 nM in assay [2].

Regarding `O=C1CCC(N2Cc3cc(C(=O)c4ccc(C5CCCCC5)cc4)ccc3C2=O)C(=O)N1` (stereo not drawn) [Compound 55, 3-(5-(4-cyclohexylbenzoyl)-1-oxoisoindolin-2-yl)piperidine-2,6-dione], the GI50 in assay [1] and in assay [2] was at most 100 nM in each case.

As to `O=C1CCC(N2Cc3cc(C(=O)c4cn(-c5ccccc5)c5ccccc45)ccc3C2=O)C(=O)N1` (stereo not drawn) [Compound 35, 3-(1-oxo-5-(1-phenyl-1H-indole-3-carbonyl)isoindolin-2-yl)piperidine-2,6-dione], the GI50 in assay [1] and in assay [2] was at most 100 nM in each case. Further, in assay [3], the “CRBN binding affinity (% Ctrl @ 5µM)” value is “A (0 ≤ '% Ctrl' < 0.1)”.

In the case of `O=C1CCC(N2Cc3cc(C(=O)c4ccc5c(c4)OCO5)ccc3C2=O)C(=O)N1` (stereo not drawn) [Compound 42, 3-(5-(benzo[d][1,3]dioxole-5-carbonyl)-1-oxoisoindolin-2-yl)piperidine-2,6-dione], the GI50 in assay [1] and in assay [2] was at most 100 nM throughout.

With `O=C1CCC(N2Cc3cc(C(=O)c4ccc5cn[nH]c5c4)ccc3C2=O)C(=O)N1` (stereo not drawn) [Compound 21, 3-(5-(1H-indazole-6-carbonyl)-1-oxoisoindolin-2-yl)piperidine-2,6-dione], the GI50 in assay [1] is 1000 to 10000 nM; in assay [4], above 10000 nM; in assay [2] it was 100 to 1000 nM. Further, the “CRBN binding affinity (% Ctrl @ 5µM)” value in assay [3] was “A (0 ≤ '% Ctrl' < 0.1)”.

Consider `O=C1CCC(N2Cc3cc(C(=O)c4ccc5ccccc5n4)ccc3C2=O)C(=O)N1` (stereo not drawn) [Compound 70, 3-(1-oxo-5-(quinoline-2-carbonyl)isoindolin-2-yl)piperidine-2,6-dione], for which the GI50 in assay [1] is above 10000 nM; in assay [2] it was 1000 to 10000 nM.

Turning to `Cn1c(C(=O)c2ccc3c(c2)CN(C2CCC(=O)NC2=O)C3=O)cc2ccccc21` (stereo not drawn) [Compound 59, 3-(5-(1-methyl-1H-indole-2-carbonyl)-1-oxoisoindolin-2-yl)piperidine-2,6-dione], the results for the GI50 in assay [1] and in assay [2] were at most 100 nM and 100 to 1000 nM, respectively.

`O=C1CCC(N2Cc3cc(C(=O)c4cc(-c5ccccc5)c[nH]4)ccc3C2=O)C(=O)N1` (stereo not drawn) [Compound 27, 3-(1-oxo-5-(4-phenyl-1H-pyrrole-2-carbonyl)isoindolin-2-yl)piperidine-2,6-dione]: the GI50 in assay [1] and in assay [2] was at most 100 nM each time. Moreover, the “CRBN binding affinity (% Ctrl @ 5µM)” value in assay [3] is “A (0 ≤ '% Ctrl' < 0.1)”.

Consider `CN(C)c1ccc(C(=O)c2ccc3c(c2)CN(C2CCC(=O)NC2=O)C3=O)cc1` (stereo not drawn) [Compound 46, 3-(5-(4-(dimethylamino)benzoyl)-1-oxoisoindolin-2-yl)piperidine-2,6-dione], for which the GI50 in assay [1] and in assay [2] was at most 100 nM in each case.

`O=C1CCC(N2Cc3cc(C(=O)c4cc5ccc(F)cc5[nH]4)ccc3C2=O)C(=O)N1` (stereo not drawn) [Compound 19, 3-(5-(6-fluoro-1H-indole-2-carbonyl)-1-oxoisoindolin-2-yl)piperidine-2,6-dione]: the GI50 in assay [1] and in assay [2] was at most 100 nM each time.
